We go through seven compounds from patent US20090305239A1, “Methods and compositions for determing a level of biologically active serum paraoxonase” (priority 2005, published 2009).

Several values for one entry are separate records, joined by “and”; a condition that tells them apart may be missing. Equal values may be shown once. Where only a bound is given, the exact number is not on record here.

For orientation: Km means the concentration of substrate that gives half-maximal velocity. For orientation: kcat means the maximal rate divided by the concentration of active sites.

One test relates to rePON1. The note with it: rePON1 with 5-alkyl butyrolactones, taken from Ref. 4; cited from earlier work.
The test system of test [1] is recombinant PON1 variant rePON1-G2E6. The following applies: substrate hydrolysis by rePON1; 50 mM Tris pH 8.0, 1 mM CaCl2, 50 mM NaCl; DTNB detection.
Description: The kinetic parameters of enzymatic hydrolysis of the three TXBLs by PON1 were determined by detecting the released thiol moiety with DTNB.
Kinetics were performed with recombinant PON1 variant rePON1-G2E6 expressed in fusion with a thioredoxin and 6×His tag, and purified as described^[19].
Kinetic measurements with DTNB—The rates of enzymatic hydrolyses of the thioalkyl-substituted lactones were determined in 50 mM Tris pH 8.0 with 1 mM CaCl2 and 50 mM NaCl (activity buffer). The enzyme stocks were kept in activity buffer containing 0.1% tergitol, and the enzyme concentration used was 8.375×10^−9 M. Stocks of 100-400 mM of substrates were prepared in acetonitrile and diluted with the reaction buffer immediately before initializing the reaction. […] The substrate concentrations were varied in the range of 0.3×KM up to (2-3)×KM. The co-solvent percentage was kept at 1% in all reactions. The DTNB dye (Ellman's reagent, 5′,5-dithio bis(2-nitrobenzoic acid) was used from 100 mM stock in DMSO, at a final concentration of 0.5 mM. An ε412 nm=7000 OD/M was used to calculate the activity. Product formation was monitored spectrophotometrically at 412 nm in 200 μl reaction volumes, using 96-well plates, on a microtiter plate reader (PowerWave HT™ Microplate Scanning Spectrophotometer; optical length ˜0.5 cm). Initial velocities (v0) were determined at eight different concentrations for each substrate. v0 values were corrected for the background rate of spontaneous hydrolysis in the absence of enzyme. Kinetic parameters (kcat, KM, kcat/KM) were obtained by fitting the data to the Michaelis-Menten equation [v0=kcat[E]0[S]0/([S]0+KM)], using the program Kaleidagraph 5.0.
In a further test the test system is PON3. Put plainly: Lactonase activity of PON3 in purified enzyme samples and crude cell lysates. The test is classed as biochemical. The following applies: data not shown.
Test [2] has as its target T1, PON1 in human sera (Homo sapiens, UniProt P27169). The experiment in a line: biochemical. The note with it: read-out: Serum activity with 1 mM phenyl acetate, 100 μM HQ (% of uninhibited activity), human serum 1:400 pre-incubated with 100 μM HQ; samples #1 and #2.
Description: (§1) Hydrolysis of phenyl acetate was monitored directly by absorbance at 270 nm (FIG. 2b).
(§2) The reaction mixtures of phenyl acetate contained 1 mM phenyl acetate from 500 mM stock in methanol. All the reaction mixtures contained final 1% DMSO. […] The serum was incubated with the inhibitors for 5-10 minutes before the initiation of the reaction.
(§3) In parallel, we the PON1 activity was determined with phenyl acetate, which is routinely used as a probe for PON1 levels in the serum.
In test [3] the target is T1, PON1 in human sera. The following applies: samples #1 and #2.
Description: as §1, §2, §3
Test [4] concerns the target T1, PON1 in human sera. The experiment in a line: Serum lactonase activity with TBBL (DTNB, 412 nm), with and without inhibitors. The class given is biochemical.
Description: as §1, §2, §3
Test [5] deals with E. coli cells expressing recombinant PON1 (rePON1). Put plainly: Detection of PON1 lactonase activity in living cells by FACS in w/o/w emulsions with TBBL and CPM. The test is classed as cell-based. The following applies: TBBL with thiol-detecting dye CPM, emission at 530 nm, single E. coli cells in w/o/w emulsion. The source says: Shown are representative histograms of the fluorescent emission at 530 nm (the thiol-CPM adduct) for single cells expressing GFP and PON1 (white), and control cells with GFP only (grey).
PON1 activity was also detected in living cells, using FACS (fluorescence-activated cell sorter) and emulsion droplets that compartmentalize the cells together with the products of the enzymatic activity^[15, 16]. […] The w/o emulsion was then re-emulsified, to generate the w/o/w double emulsion with a continuous water phase that is amenable to FACS^[15]. The FACS triggering threshold was set for the emission of GFP, and an appropriate gate was chosen corresponding to the level of emission of single E. coli cells^[16]. […] A clear difference (>20-fold in mean fluorescence) was observed relative to cells bearing no rePON1
Background: In flow cytometry, cells or beads pass a laser one at a time.

Where [6] appears, read: human serum 1:400 pre-incubated with 5 mM EDTA.

T1 sequence (P27169 whole entry): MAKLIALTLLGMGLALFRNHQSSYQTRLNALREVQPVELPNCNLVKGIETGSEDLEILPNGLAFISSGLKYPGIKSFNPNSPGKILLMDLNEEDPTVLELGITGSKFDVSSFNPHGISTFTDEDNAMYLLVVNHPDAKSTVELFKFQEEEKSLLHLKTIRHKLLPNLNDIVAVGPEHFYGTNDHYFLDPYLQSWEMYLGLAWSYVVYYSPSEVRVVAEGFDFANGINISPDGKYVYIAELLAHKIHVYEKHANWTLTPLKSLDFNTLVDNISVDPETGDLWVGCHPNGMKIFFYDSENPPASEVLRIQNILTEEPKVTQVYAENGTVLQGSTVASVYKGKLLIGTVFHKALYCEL

Consider `CCCCCCCC1CCC(=O)O1` (stereo not drawn) [γ-undecanoic lactone], for which, in the test with rePON1, the Km is 600 ± 70 µM and the kcat was 62 ± 2 s⁻¹.

Turning to `CCSC1CCC(=O)O1` (stereo not drawn) [TEBL, 5-ethylsulfanyl-dihydro-furan-2-one], in test [1], the Km came out at 360 ± 50 µM and the kcat was determined as 161 ± 10 s⁻¹. In addition, the “lactonase activity of PON3 assayed with the substrate” value in the test with PON3 is “could be assayed”.

Take `CCCCCCSC1CCC(=O)O1` (stereo not drawn) [THBL, 5-hexylsulfanyl-dihydro-furan-2-one]: in test [1], the Km was 350 ± 30 µM and the kcat amounted to 52.4 ± 2.6 s⁻¹.

As for `Oc1ccc2ccccc2n1` [HQ, 2-hydroxyquinoline], the activity at 100 µM was 4.9% at PON1 in human sera [2]; 8.6% at PON1 in human sera [4] (read-out: Serum activity with 0.5 mM TBBL, 100 μM HQ (% of uninhibited activity), human serum 1:400 pre-incubated with 100 μM HQ, samples #1 and #2). The “Serum activity with 1 mM phenyl acetate, 100 μM HQ” value on PON1 in human sera [3] (human serum 1:400 pre-incubated with 100 μM HQ) was 5.9 ± 0.4 μM product/min and 3.9 ± 0.3 μM product/min. Further, at PON1 in human sera [4] (human serum 1:400 pre-incubated with 100 μM HQ, samples #1 and #2), the “Serum activity with 0.5 mM TBBL, 100 μM HQ” value was 2.09 ± 0.04 μM product/min and 1.80 ± 0.01 μM product/min.

Consider `CCCCSC1CCC(=O)O1` (stereo not drawn) [TBBL, 5-butylsulfanyl-dihydro-furan-2-one], for which, in test [1], the Km worked out at 270 ± 40 µM and the catalytic constant (kcat) was 116 ± 4 s⁻¹. For the same compound, in test [5], the “difference in mean fluorescence relative to cells bearing no rePON1” value is on record as > 20 fold. The “lactonase activity of PON3 assayed with the substrate” value in the test with PON3 is “could be assayed”.

With `O=C(O)CN(CCN(CC(=O)O)CC(=O)O)CC(=O)O` [EDTA], on PON1 in human sera [3] (setting [6]), the “Serum activity with 1 mM phenyl acetate, 5 mM EDTA” value is listed as ~0 μM product/min and the “Serum activity with 1 mM phenyl acetate, 5 mM EDTA (% of uninhibited activity)” value is reported as “(0%)”. The “Serum activity with 0.5 mM TBBL, 5 mM EDTA” value on PON1 in human sera [4] (human serum 1:400 pre-incubated with 5 mM EDTA, samples #1 and #2) is 0.04 ± 0.01 μM product/min and 0.06 ± 0.01 μM product/min. Further, the “inhibition rates by EDTA” value against PON1 in human sera [4] (serum lactonase (TBBL) and aryl esterase (phenyl acetate) activities, 5 mM EDTA) is > 99%.

For `CCCCCC1CCC(=O)O1` (stereo not drawn) [γ-nonanoic lactone], in the test with rePON1, the Km was 390 ± 30 µM and the kcat was 31 ± 2 s⁻¹.
